In PubChem BioAssay AID330 (DTP/NCI, 2004):
Where “and” joins values, the source holds several entries; their conditions need not be identical. Identical values can stand only once. Inconclusive results and toxic doses are left out. Rule for the calls: active = survival T/C of 150% or more; inactive = T/C below 125% in these data.

System: P388 leukemia ip, CD2F1 mice, survival T/C
Assay: NCI In Vivo Anticancer Drug Screen. Data for tumor model P388 Leukemia (intraperitoneal) in CD2F1 (CDF1) mice
Settings: endpoint: median survival time, higher = longer survival
In short: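 Mice carrying the transplanted tumor received test compound or vehicle. Survival was recorded in each group, and the value is the treated-group measurement divided by that of the vehicle-treated control group.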

[1] = dose: 100.0 mg/kg/injection, schedule: Q01DX001 (ip), vehicle: Klucel (hydroxypropylcellulose) (HPC)
[2] = dose: 100.0 mg/kg/injection, schedule: Q04DX003 (ip), vehicle: saline with Tween-80
[3] = dose: 50.0 mg/kg/injection, schedule: Q01DX009 (ip), vehicle: saline with Tween-80
[4] = dose: 100.0 mg/kg/injection, schedule: Q01DX009 (ip), vehicle: saline with Tween-80

Measured: T/C

COc1cc(OC2OC(CO)C(O)C(O)C2O)c2c(O)c3c(=O)cc(C)oc3cc2c1 (configuration not stated)
inactive: dose: 3.75 mg/kg/injection, schedule: Q01DX009 (ip), vehicle: Klucel (hydroxypropylcellulose) (HPC) 100 % of control | dose: 7.5 mg/kg/injection, schedule: Q01DX009 (ip), vehicle: Klucel (hydroxypropylcellulose) (HPC) 100 % of control | dose: 15.0 mg/kg/injection, schedule: Q01DX009 (ip), vehicle: Klucel (hydroxypropylcellulose) (HPC) 94 % of control | dose: 30.0 mg/kg/injection, schedule: Q01DX009 (ip), vehicle: Klucel (hydroxypropylcellulose) (HPC) 101 % of control

Cc1ccc(O)c(C(=NCCN=C(c2ccccc2)c2cc(C)ccc2O)c2ccccc2)c1.[Cu]
inactive: dose: 25.0 mg/kg/injection, schedule: Q01DX005 (ip), vehicle: Klucel (hydroxypropylcellulose) (HPC) 98 % of control | dose: 50.0 mg/kg/injection, schedule: Q01DX005 (ip), vehicle: Klucel (hydroxypropylcellulose) (HPC) 98 % of control | dose: 100.0 mg/kg/injection, schedule: Q01DX005 (ip), vehicle: Klucel (hydroxypropylcellulose) (HPC) 96 % of control | dose: 200.0 mg/kg/injection, schedule: Q01DX005 (ip), vehicle: Klucel (hydroxypropylcellulose) (HPC) 90 % of control

CCn1c(Cl)c(C=O)c2ccccc21
inactive: [1] 100 % of control | dose: 200.0 mg/kg/injection, schedule: Q01DX001 (ip), vehicle: Klucel (hydroxypropylcellulose) (HPC) 92 % of control | dose: 400.0 mg/kg/injection, schedule: Q01DX001 (ip), vehicle: Klucel (hydroxypropylcellulose) (HPC) 95 % of control

Cc1cc2oc3c(ccc(=O)n3C)c(=O)c2c(C)c1Cl
inactive: dose: 50.0 mg/kg/injection, schedule: Q01DX005 (ip), vehicle: saline with Tween-80 104 % of control | dose: 100.0 mg/kg/injection, schedule: Q01DX005 (ip), vehicle: saline with Tween-80 113 % of control | dose: 200.0 mg/kg/injection, schedule: Q01DX005 (ip), vehicle: saline with Tween-80 88 % of control

CCN=C(c1ccc(NC(=O)c2ccc(C(=O)Nc3ccc(C(=NCC)N(CC)CC)cc3)c(Cl)c2)cc1)N(CC)CC
inactive: dose: 0.05 mg/kg/injection, schedule: Q01DX005 (ip), vehicle: saline 104 % of control | dose: 0.09 mg/kg/injection, schedule: Q01DX005 (ip), vehicle: saline 87 % of control | dose: 0.19 mg/kg/injection, schedule: Q01DX005 (ip), vehicle: saline 97 % of control | dose: 0.39 mg/kg/injection, schedule: Q01DX005 (ip), vehicle: saline 102 % of control and 97 % of control

O=C1NC(c2ccccc2)(c2ccccc2)C(=O)N1CCBr
inactive: dose: 12.5 mg/kg/injection, schedule: Q04DX003 (ip), vehicle: saline 106 % of control | dose: 25.0 mg/kg/injection, schedule: Q04DX003 (ip), vehicle: Klucel (hydroxypropylcellulose) (HPC) 96 % of control | dose: 25.0 mg/kg/injection, schedule: Q04DX003 (ip), vehicle: saline 100 % of control | dose: 50.0 mg/kg/injection, schedule: Q04DX003 (ip), vehicle: Klucel (hydroxypropylcellulose) (HPC) 105 % of control | dose: 50.0 mg/kg/injection, schedule: Q04DX003 (ip), vehicle: saline 105 % of control | dose: 100.0 mg/kg/injection, schedule: Q04DX003 (ip), vehicle: Klucel (hydroxypropylcellulose) (HPC) 100 % of control and 107 % of control | dose: 100.0 mg/kg/injection, schedule: Q04DX003 (ip), vehicle: saline 104 % of control | dose: 200.0 mg/kg/injection, schedule: Q04DX003 (ip), vehicle: Klucel (hydroxypropylcellulose) (HPC) 100 % of control and 96 % of control | dose: 400.0 mg/kg/injection, schedule: Q04DX003 (ip), vehicle: Klucel (hydroxypropylcellulose) (HPC) 98 % of control and 99 % of control

CN(C)c1ccc(-c2nnc3c(c(=O)n(C)c(=O)n3C)[n+]2[O-])cc1
inactive: dose: 25.0 mg/kg/injection, schedule: Q01DX001 (ip), vehicle: Klucel (hydroxypropylcellulose) (HPC) 102 % of control | dose: 50.0 mg/kg/injection, schedule: Q01DX001 (ip), vehicle: Klucel (hydroxypropylcellulose) (HPC) 93 % of control | [1] 100 % of control and 94 % of control

COc1ccc(/C=C2\CCCC3=C2N=C2SCC(=O)N2C3c2ccc(OC)cc2)cc1 (configuration not stated)
inactive: dose: 25.0 mg/kg/injection, schedule: Q04DX003 (ip), vehicle: saline with Tween-80 98 % of control | dose: 50.0 mg/kg/injection, schedule: Q04DX003 (ip), vehicle: saline with Tween-80 92 % of control | [2] 90 % of control

CC(C)CCCCCCCCCCCCC(=O)NC1C(C)OC(Nc2ncnc3nc[nH]c23)C(O)C1O (configuration not stated)
inactive: dose: 0.5 mg/kg/injection, schedule: Q01DX009 (ip), vehicle: other 107 % of control | dose: 1.0 mg/kg/injection, schedule: Q01DX009 (ip), vehicle: other 109 % of control | dose: 2.0 mg/kg/injection, schedule: Q01DX009 (ip), vehicle: other 98 % of control | dose: 4.0 mg/kg/injection, schedule: Q01DX009 (ip), vehicle: other 106 % of control | dose: 6.25 mg/kg/injection, schedule: Q01DX009 (ip), vehicle: other 104 % of control | dose: 8.0 mg/kg/injection, schedule: Q01DX009 (ip), vehicle: other 106 % of control | dose: 12.5 mg/kg/injection, schedule: Q01DX009 (ip), vehicle: other 91 % of control | dose: 25.0 mg/kg/injection, schedule: Q01DX009 (ip), vehicle: other 88 % of control | dose: 50.0 mg/kg/injection, schedule: Q01DX009 (ip), vehicle: other 91 % of control

CC(C)C1=CC23CCC4C(C)(C(=O)O)CCCC4(C)C2CC1OO3 (configuration not stated)
inactive: dose: 100.0 mg/kg/injection, schedule: Q01DX009 (ip), vehicle: saline sonified 95 % of control | dose: 200.0 mg/kg/injection, schedule: Q01DX009 (ip), vehicle: saline sonified 100 % of control | dose: 400.0 mg/kg/injection, schedule: Q01DX009 (ip), vehicle: saline sonified 100 % of control

CCCCCCCCCCCCCCCCSc1ccncc1NN=O
inactive: dose: 3.12 mg/kg/injection, schedule: Q01DX009 (ip), vehicle: saline with Tween-80 99 % of control | dose: 6.25 mg/kg/injection, schedule: Q01DX009 (ip), vehicle: saline with Tween-80 106 % of control | dose: 12.5 mg/kg/injection, schedule: Q01DX009 (ip), vehicle: saline with Tween-80 101 % of control | dose: 25.0 mg/kg/injection, schedule: Q01DX009 (ip), vehicle: saline with Tween-80 105 % of control | [3] 99 % of control and 100 % of control | [4] 113 % of control

CCCCCCCCCCCCCCCCCCCCCC(=O)OC
inactive: [3] 100 % of control | [4] 100 % of control | [2] 91 % of control | dose: 200.0 mg/kg/injection, schedule: Q01DX009 (ip), vehicle: saline with Tween-80 100 % of control | dose: 200.0 mg/kg/injection, schedule: Q04DX003 (ip), vehicle: saline with Tween-80 87 % of control

COc1cc2c(cc1OC)C13CC[N+]4(C)CC5=CCOC6CC(=O)N2C1C6C5CC34[O-] (configuration not stated)
inactive: dose: 60.0 mg/kg/injection, schedule: Q01DX005 (ip), vehicle: Klucel (hydroxypropylcellulose) (HPC) 99 % of control | dose: 120.0 mg/kg/injection, schedule: Q01DX005 (ip), vehicle: Klucel (hydroxypropylcellulose) (HPC) 99 % of control | dose: 240.0 mg/kg/injection, schedule: Q01DX005 (ip), vehicle: Klucel (hydroxypropylcellulose) (HPC) 111 % of control

COc1ccc(CC(C)NCC(O)c2ccc(O)c(NC=O)c2)cc1 (configuration not stated)
inactive: dose: 6.25 mg/kg/injection, schedule: Q01DX009 (ip), vehicle: saline 100 % of control | dose: 12.5 mg/kg/injection, schedule: Q01DX009 (ip), vehicle: saline 101 % of control | dose: 25.0 mg/kg/injection, schedule: Q01DX009 (ip), vehicle: saline 99 % of control | dose: 50.0 mg/kg/injection, schedule: Q01DX009 (ip), vehicle: suspension in saline 99 % of control | dose: 200.0 mg/kg/injection, schedule: Q01DX009 (ip), vehicle: suspension in saline 91 % of control

N#Cc1cnn(-c2ccc([N+](=O)[O-])cc2[N+](=O)[O-])c1N
inactive: dose: 50.0 mg/kg/injection, schedule: Q01DX009 (ip), vehicle: saline 101 % of control | dose: 100.0 mg/kg/injection, schedule: Q01DX009 (ip), vehicle: saline 100 % of control | dose: 200.0 mg/kg/injection, schedule: Q01DX009 (ip), vehicle: saline 108 % of control
